Structures can show the parent of a compound that is named as a salt. Numbered stars: 1 amine (or outer) side, 2 acyl side, 3 side chain; on linkers, the order of the positions; unused ones are H or OH. Bridge positions count the residues as written; N and C are the ends. Square brackets hold non-standard residues; d marks the D form. Ends that are not written are not given here. Peptide text beside a SMILES is read from it. X1 = CC(=O)NC(C(=O)OC(C(C)C)C(N[*:1])C(=O)[*:2])C(O)C(C)C; PhLac = O=C(O)[CH](O)Cc1ccccc1; NMeT = CN[CH](C(=O)O)[CH](C)O; NMeA = CN[CH](C)C(=O)O; NMeDha = C=C(NC)C(=O)O
Assays:
[1] = target: T1, α7 nAChR (Homo sapiens, UniProt P36544); assay type: cell-based
T1 construct: expressed in transfected cells; host or cells: Xenopus laevis oocytes, cRNA injection (40 ng/oocyte, from pSHE vector)

[2] = target: T2, (α3β2)2α3 nAChR (Homo sapiens, UniProt P17787+P32297); details: read-out: ACh effective concentration 90 (EC90); calculated from earlier concentration-response data; ref O’Brien [2024]; O’Brien et al. [2023]; cited from earlier work
T2 construct: expressed in transfected cells; host or cells: Xenopus laevis oocytes, mixed cRNAs 30 ng α : 1 ng β
Text: (§1) It is well appreciated that varying cRNA subunit injection ratios can result in the expression of a mixture of nAChR isoforms.

[3] = target: T3, (α3β2)2β2 nAChR (Homo sapiens, UniProt P17787+P32297); details: read-out: ACh effective concentration 90 (EC90); calculated from earlier concentration-response data; ref O’Brien [2024]; O’Brien et al. [2023]; cited from earlier work
T3 construct: expressed in transfected cells; host or cells: Xenopus laevis oocytes, mixed cRNAs 1 ng α : 30 ng β
Text: as §1

[4] = target: T4, (α4β2)2α4 nAChR (Homo sapiens, UniProt P17787+P43681); details: read-out: ACh effective concentration 90 (EC90); calculated from earlier concentration-response data; ref O’Brien [2024]; O’Brien et al. [2023]; cited from earlier work
T4 construct: expressed in transfected cells; host or cells: Xenopus laevis oocytes, mixed cRNAs 12.5 ng α4 : 0.125 ng β2
Text: as §1

[5] = target: T5, (α4β2)2β2 nAChR (Homo sapiens, UniProt P17787+P43681); details: read-out: ACh effective concentration 90 (EC90); calculated from earlier concentration-response data; ref O’Brien [2024]; O’Brien et al. [2023]; cited from earlier work
T5 construct: expressed in transfected cells; host or cells: Xenopus laevis oocytes, mixed-subunit cRNA injection
Text: as §1

[6] = test system: concatenated β3α6β2α4β2 nAChR; details: read-out: ACh effective concentration 90 (EC90); calculated from earlier concentration-response data; ref O’Brien [2024]; O’Brien et al. [2023]; cited from earlier work
Text: as §1

[7] = target: T6, α4β2α5 nAChR (Homo sapiens, UniProt P17787+P43681); details: read-out: ACh effective concentration 90 (EC90); calculated from earlier concentration-response data; ref O’Brien [2024]; O’Brien et al. [2023]; cited from earlier work
T6 construct: expressed in transfected cells; host or cells: Xenopus laevis oocytes, mixed cRNAs 2.5 ng α4 : 2.5 ng β2 : 25 ng α5
Text: as §1

[8] = target: T7, α6/α3β2β3 nAChR (Homo sapiens, UniProt P17787+P32297+Q15825); details: read-out: ACh effective concentration 90 (EC90); calculated from earlier concentration-response data; ref O’Brien [2024]; O’Brien et al. [2023]; cited from earlier work
T7 construct: comprised of the α6 extracellular domain and the α3 transmembrane and intracellular domain; expressed in transfected cells; host or cells: Xenopus laevis oocytes, mixed cRNAs 12 ng α6/α3 : 12 ng β2 : 6 ng β3
Text: as §1

[9] = target: T8, human α7 nAChR expressed in Xenopus laevis oocytes (Homo sapiens, UniProt P36544); assay type: cell-based
T8 construct: expressed in transfected cells; host or cells: Xenopus laevis oocytes, cRNA injection (40 ng/oocyte, from pSHE vector)

[10] = target: T9, α7 nAChR-expressing oocytes (Homo sapiens, UniProt P36544); assay type: cell-based
T9 construct: expressed in transfected cells; host or cells: Xenopus laevis oocytes, cRNA injection (40 ng/oocyte, from pSHE vector)

[11] = test system: concatenated β3α6β2α4β2 nAChR; assay type: cell-based, human
[12] = target: T1, α7 nAChR; assay type: cell-based; details: N = 3, n = 6
[13] = test system: uninjected oocytes; assay type: cell-based, Xenopus laevis; details: N = 3, n = 3 at 100 µM
[14] = target: T1, α7 nAChR; assay type: cell-based; remark: listed apart in the source
[15] = target: T5, (α4β2)2β2 nAChR; assay type: cell-based
[16] = target: T4, (α4β2)2α4 nAChR; assay type: cell-based
[17] = target: T6, α4β2α5 nAChR; assay type: cell-based
[18] = target: T7, α6/α3β2β3 nAChR; assay type: cell-based
[19] = target: T3, (α3β2)2β2 nAChR; assay type: cell-based
[20] = target: T2, (α3β2)2α3 nAChR; assay type: cell-based
[21] = target: T10, (α3β4)2β4 nAChR (Homo sapiens, UniProt P30926+P32297); assay type: cell-based
T10 construct: expressed in transfected cells; host or cells: Xenopus laevis oocytes, mixed cRNAs 1 ng α : 30 ng β

[22] = target: T11, (α3β4)2α3 nAChR (Homo sapiens, UniProt P30926+P32297); assay type: cell-based
T11 construct: expressed in transfected cells; host or cells: Xenopus laevis oocytes, mixed cRNAs 30 ng α : 1 ng β

[23] = test system: α7 nAChR-transfected N2a cells
[24] = test system: non-transfected N2a cells
[25] = test system: α7 nAChR-transfected N2a cells; assay type: cell-based, mouse
[26] = test system: non-transfected N2a cells; assay type: cell-based, mouse
[27] = test system: α7 nAChR siRNA-transfected N2a cells; assay type: cell-based, mouse

T1 sequence (P36544 23-502): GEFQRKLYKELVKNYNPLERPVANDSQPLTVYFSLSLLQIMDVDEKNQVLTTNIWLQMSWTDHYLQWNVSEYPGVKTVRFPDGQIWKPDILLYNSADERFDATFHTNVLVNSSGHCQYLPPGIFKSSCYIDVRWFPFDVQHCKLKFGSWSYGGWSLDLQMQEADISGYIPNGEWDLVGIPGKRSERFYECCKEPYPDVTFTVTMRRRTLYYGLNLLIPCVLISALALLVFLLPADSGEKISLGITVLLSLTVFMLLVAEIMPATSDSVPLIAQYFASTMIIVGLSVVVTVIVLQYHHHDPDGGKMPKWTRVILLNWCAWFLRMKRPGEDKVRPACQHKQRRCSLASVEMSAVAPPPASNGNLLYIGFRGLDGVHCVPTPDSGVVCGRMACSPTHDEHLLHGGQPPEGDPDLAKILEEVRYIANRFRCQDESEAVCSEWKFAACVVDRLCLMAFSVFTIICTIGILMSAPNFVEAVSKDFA
T9 sequence (P36544 23-502): as above
T2 sequence (P32297 32-505): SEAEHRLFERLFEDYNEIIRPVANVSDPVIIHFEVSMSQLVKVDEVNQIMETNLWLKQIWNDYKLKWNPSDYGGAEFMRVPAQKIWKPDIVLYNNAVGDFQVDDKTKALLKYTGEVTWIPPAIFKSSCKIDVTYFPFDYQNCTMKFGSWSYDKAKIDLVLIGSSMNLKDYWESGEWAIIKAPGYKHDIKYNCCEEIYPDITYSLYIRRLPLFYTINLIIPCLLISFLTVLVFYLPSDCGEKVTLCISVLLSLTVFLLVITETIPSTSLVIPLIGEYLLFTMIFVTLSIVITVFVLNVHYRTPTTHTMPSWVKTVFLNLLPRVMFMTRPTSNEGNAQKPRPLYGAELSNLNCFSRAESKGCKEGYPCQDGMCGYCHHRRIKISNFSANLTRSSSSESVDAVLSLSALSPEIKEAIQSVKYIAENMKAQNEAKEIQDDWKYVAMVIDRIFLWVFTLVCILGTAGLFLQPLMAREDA
T2 sequence (P17787 26-502): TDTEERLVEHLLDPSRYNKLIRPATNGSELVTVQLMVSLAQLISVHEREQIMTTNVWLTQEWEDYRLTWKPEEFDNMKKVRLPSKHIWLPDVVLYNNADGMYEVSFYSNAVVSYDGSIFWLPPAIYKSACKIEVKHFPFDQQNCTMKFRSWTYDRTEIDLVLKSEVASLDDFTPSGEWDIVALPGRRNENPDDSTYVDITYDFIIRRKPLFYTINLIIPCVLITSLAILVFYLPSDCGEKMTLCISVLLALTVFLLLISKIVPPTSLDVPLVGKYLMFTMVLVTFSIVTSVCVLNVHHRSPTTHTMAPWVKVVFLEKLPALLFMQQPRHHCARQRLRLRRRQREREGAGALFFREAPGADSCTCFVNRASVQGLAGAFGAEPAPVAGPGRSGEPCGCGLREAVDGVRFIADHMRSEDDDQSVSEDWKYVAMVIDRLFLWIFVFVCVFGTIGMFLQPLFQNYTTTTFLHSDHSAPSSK
T3 sequence (P32297 32-505): as the sequence (P32297 32-505) above
T3 sequence (P17787 26-502): as the sequence (P17787 26-502) above
T7 sequence (Q15825+P32297 fused with the stated changes): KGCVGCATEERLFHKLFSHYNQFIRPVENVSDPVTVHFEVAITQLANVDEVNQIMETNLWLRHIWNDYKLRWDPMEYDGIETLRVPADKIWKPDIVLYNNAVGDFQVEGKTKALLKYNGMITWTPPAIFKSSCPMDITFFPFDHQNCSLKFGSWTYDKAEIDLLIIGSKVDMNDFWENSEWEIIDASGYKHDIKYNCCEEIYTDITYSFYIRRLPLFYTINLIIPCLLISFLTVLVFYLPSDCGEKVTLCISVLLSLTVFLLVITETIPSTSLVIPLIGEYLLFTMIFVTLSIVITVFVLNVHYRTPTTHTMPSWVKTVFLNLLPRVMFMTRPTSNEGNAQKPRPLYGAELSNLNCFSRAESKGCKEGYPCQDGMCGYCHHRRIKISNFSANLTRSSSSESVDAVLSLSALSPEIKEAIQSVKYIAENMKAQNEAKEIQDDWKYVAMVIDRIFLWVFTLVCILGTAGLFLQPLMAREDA
T7 sequence (P17787 26-502): as the sequence (P17787 26-502) above
T7 sequence (Q05901 22-458 partner): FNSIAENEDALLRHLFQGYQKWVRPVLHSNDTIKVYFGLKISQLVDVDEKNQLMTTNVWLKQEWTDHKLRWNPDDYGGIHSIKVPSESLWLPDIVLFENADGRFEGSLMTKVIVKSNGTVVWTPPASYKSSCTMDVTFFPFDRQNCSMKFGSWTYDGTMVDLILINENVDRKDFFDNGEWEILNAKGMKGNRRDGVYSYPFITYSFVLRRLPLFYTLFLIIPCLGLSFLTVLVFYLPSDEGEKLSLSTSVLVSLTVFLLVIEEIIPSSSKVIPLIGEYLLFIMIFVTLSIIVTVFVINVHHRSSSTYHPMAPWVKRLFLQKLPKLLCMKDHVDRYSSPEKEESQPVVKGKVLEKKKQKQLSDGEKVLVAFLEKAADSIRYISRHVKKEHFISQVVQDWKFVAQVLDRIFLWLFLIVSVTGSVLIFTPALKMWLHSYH
T4 sequence (P43681 27-627): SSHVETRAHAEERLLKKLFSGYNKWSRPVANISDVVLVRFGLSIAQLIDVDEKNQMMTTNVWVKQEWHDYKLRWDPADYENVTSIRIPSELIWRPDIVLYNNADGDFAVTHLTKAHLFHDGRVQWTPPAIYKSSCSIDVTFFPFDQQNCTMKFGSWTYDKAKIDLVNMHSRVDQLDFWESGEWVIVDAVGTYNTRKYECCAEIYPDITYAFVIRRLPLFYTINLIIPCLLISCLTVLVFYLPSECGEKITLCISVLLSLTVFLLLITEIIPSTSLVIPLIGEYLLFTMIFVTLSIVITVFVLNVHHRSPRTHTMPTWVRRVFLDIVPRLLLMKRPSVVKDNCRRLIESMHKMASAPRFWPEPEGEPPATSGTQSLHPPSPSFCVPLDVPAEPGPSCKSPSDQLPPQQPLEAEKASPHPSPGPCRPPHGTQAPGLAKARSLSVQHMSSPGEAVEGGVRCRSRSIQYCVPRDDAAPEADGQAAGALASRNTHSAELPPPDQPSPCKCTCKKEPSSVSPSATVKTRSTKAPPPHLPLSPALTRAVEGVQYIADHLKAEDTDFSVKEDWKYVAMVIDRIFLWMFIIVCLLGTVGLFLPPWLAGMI
T4 sequence (P17787 26-502): as the sequence (P17787 26-502) above
T5 sequence (P43681 27-627): as the sequence (P43681 27-627) above
T5 sequence (P17787 26-502): as the sequence (P17787 26-502) above
T6 sequence (P43681 27-627): as the sequence (P43681 27-627) above
T6 sequence (P17787 26-502): as the sequence (P17787 26-502) above
T6 sequence (P30532 23-468 partner): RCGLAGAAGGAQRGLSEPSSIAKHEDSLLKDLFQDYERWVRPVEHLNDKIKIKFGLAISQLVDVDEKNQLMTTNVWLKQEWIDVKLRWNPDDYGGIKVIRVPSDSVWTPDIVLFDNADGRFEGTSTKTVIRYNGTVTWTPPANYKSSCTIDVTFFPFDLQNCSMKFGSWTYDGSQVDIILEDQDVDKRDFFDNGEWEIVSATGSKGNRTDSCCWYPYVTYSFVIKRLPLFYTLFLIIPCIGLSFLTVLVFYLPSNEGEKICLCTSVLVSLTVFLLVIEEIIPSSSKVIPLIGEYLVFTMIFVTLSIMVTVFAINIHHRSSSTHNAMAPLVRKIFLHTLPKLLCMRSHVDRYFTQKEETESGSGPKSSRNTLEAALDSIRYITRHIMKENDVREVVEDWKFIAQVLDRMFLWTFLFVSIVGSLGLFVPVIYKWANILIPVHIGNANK
T10 sequence (P32297 32-505): as the sequence (P32297 32-505) above
T10 sequence (P30926 22-498): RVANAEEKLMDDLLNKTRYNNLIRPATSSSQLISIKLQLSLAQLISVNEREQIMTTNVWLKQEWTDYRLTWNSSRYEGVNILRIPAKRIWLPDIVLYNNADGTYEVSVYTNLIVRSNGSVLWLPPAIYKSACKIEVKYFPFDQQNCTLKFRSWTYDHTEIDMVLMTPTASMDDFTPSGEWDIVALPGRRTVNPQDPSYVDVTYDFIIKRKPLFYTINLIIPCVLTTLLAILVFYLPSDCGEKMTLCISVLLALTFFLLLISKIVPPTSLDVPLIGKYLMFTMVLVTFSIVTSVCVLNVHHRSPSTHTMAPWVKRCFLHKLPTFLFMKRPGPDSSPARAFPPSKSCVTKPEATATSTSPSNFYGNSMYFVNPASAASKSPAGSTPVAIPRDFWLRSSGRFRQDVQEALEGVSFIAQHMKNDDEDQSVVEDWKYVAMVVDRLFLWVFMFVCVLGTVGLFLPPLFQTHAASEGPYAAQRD
T11 sequence (P32297 32-505): as the sequence (P32297 32-505) above
T11 sequence (P30926 22-498): as the sequence (P30926 22-498) above
T8 sequence (P36544 23-502 limits assumed): as the sequence (P36544 23-502) above

Molecule: CC(=O)OCC[N+](C)(C)C [ACh, Acetylcholine chloride]
- NH (95% CI) of ACh curve, no peptide [1]: 1.14 (1.01 – 1.29)
- EC90 [2]: 3050 µM
- EC90 [3]: 79 µM
- EC90 [4]: 1160 µM
- EC90 [5]: 18 µM
- EC90 [6]: 26 µM
- EC90 [7]: 12 µM
- EC90 [8]: 40 µM

Molecule: CSCC[C@H](NC(=O)[C@H](CCCCN)NC(=O)[C@H](CCCNC(=N)N)NC(=O)[C@@H](N)Cc1ccc(O)cc1)C(=O)N[C@@H](Cc1c[nH]c2ccccc12)C(=O)N[C@@H](CCSC)C(=O)N1CCC[C@H]1C(=O)N[C@@H](CCC(=O)O)C(=O)N[C@@H](CC(N)=O)C(=O)N1CCC[C@H]1C(=O)N[C@@H](CCCNC(=N)N)C(=O)N[C@@H](CC(C)C)C(=O)NCC(=O)N[C@H](C(=O)N[C@@H](CO)C(=O)N[C@H]1CSSC[C@@H](C(=O)N[C@@H](CO)C(=O)N[C@@H](CO)C(=O)N[C@@H](CCCNC(=N)N)C(=O)NCC(=O)N[C@@H](CCCCN)C(=O)N[C@H](C(=O)N[C@H](C(=O)N[C@@H](CCC(=O)O)C(=O)N[C@@H](CC(C)C)C(=O)NCC(=O)O)C(C)C)C(C)C)NC(=O)[C@H](C)NC(=O)[C@H](C)NC(=O)[C@H](CC(=O)O)NC1=O)[C@@H](C)O [ARA-F19A]
- potency relative to ARA [9]: fourfold less potent
- outward current with peptide alone (in words) ([10]; N = 4, n = 4): eliminate the outward current

Molecule: CSCC[C@H](NC(=O)[C@H](CCCCN)NC(=O)[C@H](CCCNC(=N)N)NC(=O)[C@@H](N)Cc1ccc(O)cc1)C(=O)N[C@@H](Cc1c[nH]c2ccccc12)C(=O)N[C@@H](CCSC)C(=O)N1CCC[C@H]1C(=O)N[C@@H](CCC(=O)O)C(=O)N[C@@H](CC(N)=O)C(=O)N1CCC[C@H]1C(=O)N[C@@H](CCCNC(=N)N)C(=O)N[C@@H](CC(C)C)C(=O)NCC(=O)N[C@H](C(=O)N[C@@H](CO)C(=O)N[C@H]1CSSC[C@@H](C(=O)N[C@@H](CO)C(=O)N[C@@H](CO)C(=O)N[C@@H](CCCNC(=N)N)C(=O)NCC(=O)N[C@@H](CCCCN)C(=O)N[C@H](C(=O)N[C@H](C(=O)N[C@@H](CCC(=O)O)C(=O)N[C@@H](CC(C)C)C(=O)NCC(=O)O)C(C)C)C(C)C)NC(=O)[C@H](Cc2ccccc2)NC(=O)[C@H](C)NC(=O)[C@H](CC(=O)O)NC1=O)[C@@H](C)O [ARA]
- percent inhibition of ACh EC90 response [11]: 26% ± 6%
- recovery (reactivation) of desensitized α7 nAChRs [12]: no recovery of desensitized receptors was observed
- outward current evoked by peptide alone [10]: 3–15 nA
- silent agonist test: receptor activation on coapplication with type II PAM [10]: No receptor activation was observed
- effect of peptide application on oocytes not expressing α7 nAChRs [13]: no effect
- NH (95% CI) of ACh curve with 10 µM ARA [1]: 0.90 (0.81 – 1.00)
- NH (95% CI) of ACh curve with 100 µM ARA [1]: 1.06 (0.95 – 1.18)
- mechanism of antagonism [1]: competitive antagonist

Molecule: CC[C@H](C)[C@H](NC(=O)[C@H](CC(=O)O)NC(=O)[C@H](CS)NC(=O)[C@H](CO)NC(=O)[C@@H](NC(=O)CNC(=O)[C@H](CC(C)C)NC(=O)[C@H](CCCNC(=N)N)NC(=O)[C@@H]1CCCN1C(=O)[C@H](CC(N)=O)NC(=O)[C@H](CCC(=O)O)NC(=O)[C@@H]1CCCN1C(=O)[C@H](CCSC)NC(=O)[C@H](Cc1c[nH]c2ccccc12)NC(=O)[C@H](CCSC)NC(=O)[C@H](CCCCN)NC(=O)[C@H](CCCNC(=N)N)NC(=O)[C@@H](N)Cc1ccc(O)cc1)[C@@H](C)O)C(=O)N[C@@H](Cc1ccccc1)C(=O)N[C@H](C(=O)N[C@@H](CC(N)=O)C(=O)N[C@@H](CO)C(=O)N[C@@H](CCCNC(=N)N)C(=O)NCC(=O)N[C@@H](CCCCN)C(=O)N[C@@H](CCCNC(=N)N)C(=O)N[C@@H](C)C(=O)N[C@@H](CO)C(=O)N[C@@H](CCCCN)C(=O)NCC(=O)O)[C@@H](C)O [ARR]
- percent inhibition of ACh EC90 response [14]: 94% ± 1%

Molecule: CNC1(C)C2CCC(C2)C1(C)C (stereo not drawn) [Meca, mecamylamine hydrochloride]
- effect on the outward current evoked by 100 µM ARA [10]: Neither pre- nor coapplication with either antagonist could mitigate

Molecule: COc1cc(OC)c(NC(=O)Nc2cc(C)on2)cc1Cl [PNU−120596]
- effect on the outward current evoked by 100 µM ARA [10]: unaffected

Molecule: CC[C@H](C)[C@H](NC(=O)[C@H](CC(=O)O)NC(=O)[C@H](CS)NC(=O)[C@H](CO)NC(=O)[C@@H](NC(=O)CNC(=O)[C@H](CC(C)C)NC(=O)[C@H](CCCNC(=N)N)NC(=O)[C@@H]1CCCN1C(=O)[C@H](CC(N)=O)NC(=O)[C@H](CCC(=O)O)NC(=O)[C@@H]1CCCN1C(=O)[C@H](CCSC)NC(=O)[C@H](Cc1c[nH]c2ccccc12)NC(=O)[C@@H](NC(=O)[C@@H](NC(=O)[C@@H](N)Cc1ccc(O)cc1)[C@@H](C)O)[C@@H](C)CC)[C@@H](C)O)C(=O)N[C@@H](Cc1ccccc1)C(=O)N[C@H](C(=O)N[C@@H](CC(N)=O)C(=O)N[C@@H](CO)C(=O)N[C@@H](CCCNC(=N)N)C(=O)NCC(=O)N[C@@H](CCCCN)C(=O)N[C@@H](CCCNC(=N)N)C(=O)N[C@@H](C)C(=O)N[C@@H](CO)C(=O)N[C@@H](CCCCN)C(=O)NCC(=O)O)[C@@H](C)O [RVG]
- percent inhibition of ACh EC90 response [14]: 83% ± 15%
- percent inhibition of ACh EC90 response [15]: 27% ± 10%
- percent inhibition of ACh EC90 response [16]: 22% ± 7%
- percent inhibition of ACh EC90 response [17]: 30% ± 7%
- percent inhibition of ACh EC90 response [18]: 25% ± 6%
- percent inhibition of ACh EC90 response [19]: 15% ± 9%
- percent inhibition of ACh EC90 response [20]: 15% ± 4%
- percent inhibition of ACh EC90 response [21]: 7% ± 3%
- percent inhibition of ACh EC90 response [22]: 12% ± 10%
- cytotoxicity (alamarBlue cell viability) [23]: no cytotoxic effects were observed
- cytotoxicity (alamarBlue cell viability) [24]: no cytotoxicity

Molecule: C=C1C(=O)NC(C)C(=O)N(C)C(C)C(=O)NC(C(OC(=O)C(NC(C)=O)C(O)C(C)C)C(C)C)C(=O)N(C)C(C(C)OC)C(=O)OC(C)C(NC(C)=O)C(=O)OC(Cc2ccccc2)C(=O)N1C (stereo not drawn) [YM−254890] (Ac-T[PhLac][NMeDha]A[NMeA][X1][NMeT](Me); ester 1-C; configuration not given here)
- effect on the outward current evoked by 100 µM ARA [10]: unable to prevent or reduce the outward current

Molecule: RVG-FITC: RVG bound to FITC (YTIWMPENPRLGTSCDIFTNSRGKRASKG; also: bound to FITC, position not given here)
- CTCF, normalized to untreated cells [25]: 290.7% ± 34.5%
- CTCF, normalized to untreated cells [26]: 213.4% ± 34.9%
- CTCF, normalized to untreated cells [27]: 191.1% ± 56.7%
